# Results as given in publication PMC4805124 (Biochemistry, 2015).
# Where “and” joins values, the source holds several entries; their conditions need not be identical. Equal values may be shown once. Read-outs that look alike come from different tables or passages of the source.
# Assays:
# InhA^WT [1] = biological target: T1, InhA^WT (Mycobacterium tuberculosis, UniProt P9WGR1); type: biochemical
# InhA = settings: cited from earlier work
# InhA^WT [2] = biological target: T1, InhA^WT; type: binding
# T1 sequence (P9WGR1 whole entry, looked up): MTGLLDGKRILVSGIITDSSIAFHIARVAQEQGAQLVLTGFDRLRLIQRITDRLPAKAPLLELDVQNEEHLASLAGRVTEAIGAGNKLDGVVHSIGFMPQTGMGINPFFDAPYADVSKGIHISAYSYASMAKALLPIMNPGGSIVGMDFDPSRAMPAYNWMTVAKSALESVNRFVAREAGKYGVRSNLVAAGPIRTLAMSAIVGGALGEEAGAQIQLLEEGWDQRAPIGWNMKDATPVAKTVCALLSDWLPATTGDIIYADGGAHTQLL
SMILES,Ki^app/Ki*^app (InhA^WT [1]),k5 (InhA^WT [1]),k6 (InhA^WT [1]),tR (1/k6) (InhA^WT [1]),ΔΔG (InhA^WT [1]),Ki (InhA^WT [1]; read-out: Ki*^app),Ki (InhA^WT [1]; read-out: Ki^app),residence time (InhA),"Ki (InhA; slow-onset, tight binding inhibitor)",tR (^32P- NAD) (InhA^WT [2])
"CCCCCCc1ccc(Oc2ccccc2C)c(O)c1 [PT70, 2-(o-tolyoxy)-5-hexylphenol]",10.8,0.40 ± 0.01 min⁻¹,0.025 ± 0.002 min⁻¹,40 ± 2 min,1.41 and 1.41 kcal mol^−1,24 nM and 23.7 nM,256 ± 38 nM,40 min,0.6 nM,37 ± 2 min
"Cc1ccccc1Oc1ccc(Cn2cc(-c3ccccc3)nn2)cc1O [PT163, 5-((4-phenyl-1H-1,2,3-triazol-1-yl)methyl)-2-(o-tolyloxy)phenol]",–,0.44 ± 0.06 min⁻¹,0.011 ± 0.001 min⁻¹,94 ± 3 min,2.26 kcal/mol,–,–,–,–,114 min and 114 ± 18 min
